Experimental data as given in patent US9326506B2, “Preparation method, agricultural composition and applications of natural brassinolide analogs” (CHENGDU NEWSUN CROPSCIENCE CO., LTD, priority 2012, dated 2016).

Test system: rice
Experiment: Low temperature assay on rice seedlings
Assay type: in vivo
Method: According to a low temperature assay, we measured parameters including plant height, number of leaf, area of leaf, number of tiller, weight of root at low temperature to completely determine effects of the natural brassinolide analogues on the resistance to low temperature of a plant.
The natural brassinolide analogues, BR1, BR2, BR3, BR4, BR5 and BR6, used herein, were those prepared by the method of Example 1. Respectively the analogues were dissolved into 95% (V/V) ethanol solution, and then diluted with pure water to 1 mg/L, 0.1 mg/L, 0.01 mg/L, 0.001 mg/L and 0.0001 mg/L. In addition, pure water was used as a control.
After rice seeds were disinfected by using 5% sodium hypochlorite solution treatment, they were rinsed with distilled water until their pH>7, placed into a petri dish in a dark incubator, and cultured by using water at 30° C.±2° C. for 9 days. Then respectively the nine-day-old etiolated seedlings of rice were immersed in the above solutions containing different concentrations of the natural brassinolide analogues or pure water, and cultured at the temperature of 1° C., 2° C., 3° C., 4° C. and 5° C. for 24 hr. The parameters including plant height, area of leaf and weight of root after 3, 6, 9 and 12 days and number of leaf and number of tiller after 12 days were measured.

CC(C)[C@H](C)[C@@H](O)[C@H](O)[C@@H](C)[C@H]1CCC2C3COC(=O)C4C[C@H](O)[C@H](O)C[C@]4(C)C3CC[C@@]21C (some centres unmarked) [BR1]
Height (0.01 mg/l, 3 °C, 9 days): 7.4 cm
Weight of root (0.01 mg/l, 3 °C, 9 days): 2.9 g
Area of leaf (0.01 mg/l, 3 °C, 12 days): 13.2 cm^2
Height (0.01 mg/l, 3 °C, 12 days): 7.6 cm
Number of leaf (0.01 mg/l, 3 °C, 12 days): 3
Number of tiller (0.01 mg/l, 3 °C, 12 days): 2
Weight of root (0.01 mg/l, 3 °C, 12 days): 2.9 g
Area of leaf (0.01 mg/l, 4 °C, 3 days): 10.8 cm^2
Height (0.01 mg/l, 4 °C, 3 days): 7.1 cm
Weight of root (0.01 mg/l, 4 °C, 3 days): 2.5 g
Area of leaf (0.01 mg/l, 4 °C, 6 days): 12.4 cm^2
Height (0.01 mg/l, 4 °C, 6 days): 7.3 cm
Weight of root (0.01 mg/l, 4 °C, 6 days): 2.6 g
Area of leaf (0.01 mg/l, 4 °C, 9 days): 13.4 cm^2
Height (0.01 mg/l, 4 °C, 9 days): 7.5 cm
Weight of root (0.01 mg/l, 4 °C, 9 days): 2.9 g
Area of leaf (0.01 mg/l, 4 °C, 12 days): 13.7 cm^2
Height (0.01 mg/l, 4 °C, 12 days): 7.8 cm
Number of leaf (0.01 mg/l, 4 °C, 12 days): 3
Number of tiller (0.01 mg/l, 4 °C, 12 days): 2
Weight of root (0.01 mg/l, 4 °C, 12 days): 3.0 g
Area of leaf (0.01 mg/l, 5 °C, 3 days): 10.9 cm^2
Height (0.01 mg/l, 5 °C, 3 days): 7.7 cm
Weight of root (0.01 mg/l, 5 °C, 3 days): 2.8 g
Area of leaf (0.01 mg/l, 5 °C, 6 days): 13.9 cm^2
Height (0.01 mg/l, 5 °C, 6 days): 7.8 cm
Weight of root (0.01 mg/l, 5 °C, 6 days): 3.0 g
Area of leaf (0.01 mg/l, 5 °C, 9 days): 17.4 cm^2
Height (0.01 mg/l, 5 °C, 9 days): 8.2 cm
Weight of root (0.01 mg/l, 5 °C, 9 days): 3.4 g
Area of leaf (0.01 mg/l, 5 °C, 12 days): 18 cm^2
Height (0.01 mg/l, 5 °C, 12 days): 8.5 cm
Number of leaf (0.01 mg/l, 5 °C, 12 days): 4
Number of tiller (0.01 mg/l, 5 °C, 12 days): 3
Weight of root (0.01 mg/l, 5 °C, 12 days): 3.9 g
Area of leaf (0.1 mg/l, 1 °C, 3 days): 10.1 cm^2
Height (0.1 mg/l, 1 °C, 3 days): 7.0 cm
Weight of root (0.1 mg/l, 1 °C, 3 days): 2.8 g
Area of leaf (0.1 mg/l, 1 °C, 6 days): 11.9 cm^2
Height (0.1 mg/l, 1 °C, 6 days): 7.2 cm
Weight of root (0.1 mg/l, 1 °C, 6 days): 3.0 g
Area of leaf (0.1 mg/l, 1 °C, 9 days): 12.9 cm^2
Height (0.1 mg/l, 1 °C, 9 days): 7.3 cm
Weight of root (0.1 mg/l, 1 °C, 9 days): 3.4 g
Area of leaf (0.1 mg/l, 1 °C, 12 days): 13.4 cm^2
Height (0.1 mg/l, 1 °C, 12 days): 7.5 cm
Number of leaf (0.1 mg/l, 1 °C, 12 days): 3
Number of tiller (0.1 mg/l, 1 °C, 12 days): 3
Weight of root (0.1 mg/l, 1 °C, 12 days): 3.6 g
Area of leaf (0.1 mg/l, 2 °C, 3 days): 10.4 cm^2
Height (0.1 mg/l, 2 °C, 3 days): 7.1 cm
Weight of root (0.1 mg/l, 2 °C, 3 days): 2.9 g
Area of leaf (0.1 mg/l, 2 °C, 6 days): 11.8 cm^2
Height (0.1 mg/l, 2 °C, 6 days): 7.2 cm
Weight of root (0.1 mg/l, 2 °C, 6 days): 3.0 g
Area of leaf (0.1 mg/l, 2 °C, 9 days): 12.8 cm^2
Height (0.1 mg/l, 2 °C, 9 days): 7.3 cm
Weight of root (0.1 mg/l, 2 °C, 9 days): 3.1 g
Area of leaf (0.1 mg/l, 2 °C, 12 days): 13.6 cm^2
Height (0.1 mg/l, 2 °C, 12 days): 7.4 cm
Number of leaf (0.1 mg/l, 2 °C, 12 days): 3
Number of tiller (0.1 mg/l, 2 °C, 12 days): 3
Weight of root (0.1 mg/l, 2 °C, 12 days): 3.2 g
Area of leaf (0.1 mg/l, 3 °C, 3 days): 10.5 cm^2
Height (0.1 mg/l, 3 °C, 3 days): 7.2 cm
Weight of root (0.1 mg/l, 3 °C, 3 days): 2.5 g
Area of leaf (0.1 mg/l, 3 °C, 6 days): 12 cm^2
Height (0.1 mg/l, 3 °C, 6 days): 7.3 cm
Weight of root (0.1 mg/l, 3 °C, 6 days): 2.6 g
Area of leaf (0.1 mg/l, 3 °C, 9 days): 12.8 cm^2
Height (0.1 mg/l, 3 °C, 9 days): 7.4 cm
Weight of root (0.1 mg/l, 3 °C, 9 days): 2.9 g
Area of leaf (0.1 mg/l, 3 °C, 12 days): 13.4 cm^2
Height (0.1 mg/l, 3 °C, 12 days): 7.6 cm
Number of leaf (0.1 mg/l, 3 °C, 12 days): 3
Number of tiller (0.1 mg/l, 3 °C, 12 days): 2
Weight of root (0.1 mg/l, 3 °C, 12 days): 2.9 g
Area of leaf (0.1 mg/l, 4 °C, 3 days): 10.8 cm^2
Height (0.1 mg/l, 4 °C, 3 days): 7.1 cm
Weight of root (0.1 mg/l, 4 °C, 3 days): 2.5 g
Area of leaf (0.1 mg/l, 4 °C, 6 days): 12.5 cm^2
Height (0.1 mg/l, 4 °C, 6 days): 7.4 cm
Weight of root (0.1 mg/l, 4 °C, 6 days): 2.7 g
Area of leaf (0.1 mg/l, 4 °C, 9 days): 13.5 cm^2
Height (0.1 mg/l, 4 °C, 9 days): 7.5 cm
Weight of root (0.1 mg/l, 4 °C, 9 days): 2.9 g
Area of leaf (0.1 mg/l, 4 °C, 12 days): 13.8 cm^2
Height (0.1 mg/l, 4 °C, 12 days): 7.7 cm
Number of leaf (0.1 mg/l, 4 °C, 12 days): 3
Number of tiller (0.1 mg/l, 4 °C, 12 days): 2
Weight of root (0.1 mg/l, 4 °C, 12 days): 3.1 g
Area of leaf (0.1 mg/l, 5 °C, 3 days): 11.1 cm^2
Height (0.1 mg/l, 5 °C, 3 days): 7.7 cm
Weight of root (0.1 mg/l, 5 °C, 3 days): 2.9 g
Area of leaf (0.1 mg/l, 5 °C, 6 days): 13.9 cm^2
Height (0.1 mg/l, 5 °C, 6 days): 7.9 cm
Weight of root (0.1 mg/l, 5 °C, 6 days): 3.2 g
Area of leaf (0.1 mg/l, 5 °C, 9 days): 17.8 cm^2
Height (0.1 mg/l, 5 °C, 9 days): 8.4 cm
Weight of root (0.1 mg/l, 5 °C, 9 days): 3.5 g
Area of leaf (0.1 mg/l, 5 °C, 12 days): 19 cm^2
Height (0.1 mg/l, 5 °C, 12 days): 8.7 cm
Number of leaf (0.1 mg/l, 5 °C, 12 days): 3
Number of tiller (0.1 mg/l, 5 °C, 12 days): 2
Weight of root (0.1 mg/l, 5 °C, 12 days): 4.1 g
Area of leaf (1 mg/l, 1 °C, 3 days): 10 cm^2
Height (1 mg/l, 1 °C, 3 days): 7.1 cm
Weight of root (1 mg/l, 1 °C, 3 days): 2.8 g
Area of leaf (1 mg/l, 1 °C, 6 days): 11.2 cm^2
Height (1 mg/l, 1 °C, 6 days): 7.2 cm
Weight of root (1 mg/l, 1 °C, 6 days): 3.1 g
Area of leaf (1 mg/l, 1 °C, 9 days): 12.4 cm^2
Height (1 mg/l, 1 °C, 9 days): 7.3 cm
Weight of root (1 mg/l, 1 °C, 9 days): 3.4 g
Area of leaf (1 mg/l, 1 °C, 12 days): 13 cm^2
Height (1 mg/l, 1 °C, 12 days): 7.4 cm
Number of leaf (1 mg/l, 1 °C, 12 days): 3
Number of tiller (1 mg/l, 1 °C, 12 days): 3
Weight of root (1 mg/l, 1 °C, 12 days): 3.9 g
Area of leaf (1 mg/l, 2 °C, 3 days): 10.2 cm^2
Height (1 mg/l, 2 °C, 3 days): 7.1 cm
Weight of root (1 mg/l, 2 °C, 3 days): 2.8 g
Area of leaf (1 mg/l, 2 °C, 6 days): 11.7 cm^2
Height (1 mg/l, 2 °C, 6 days): 7.2 cm
Weight of root (1 mg/l, 2 °C, 6 days): 3.0 g
Area of leaf (1 mg/l, 2 °C, 9 days): 12.6 cm^2
Height (1 mg/l, 2 °C, 9 days): 7.3 cm
Weight of root (1 mg/l, 2 °C, 9 days): 3.2 g
Area of leaf (1 mg/l, 2 °C, 12 days): 13 cm^2
Height (1 mg/l, 2 °C, 12 days): 7.5 cm
Number of leaf (1 mg/l, 2 °C, 12 days): 3
Number of tiller (1 mg/l, 2 °C, 12 days): 3
Weight of root (1 mg/l, 2 °C, 12 days): 3.9 g
Area of leaf (1 mg/l, 3 °C, 3 days): 10.4 cm^2
Height (1 mg/l, 3 °C, 3 days): 7.1 cm
Weight of root (1 mg/l, 3 °C, 3 days): 2.5 g
Area of leaf (1 mg/l, 3 °C, 6 days): 12 cm^2
Height (1 mg/l, 3 °C, 6 days): 7.2 cm
Weight of root (1 mg/l, 3 °C, 6 days): 2.6 g
Area of leaf (1 mg/l, 3 °C, 9 days): 12.6 cm^2
Height (1 mg/l, 3 °C, 9 days): 7.5 cm
Weight of root (1 mg/l, 3 °C, 9 days): 2.9 g
Area of leaf (1 mg/l, 3 °C, 12 days): 13.2 cm^2
Height (1 mg/l, 3 °C, 12 days): 7.6 cm
Number of leaf (1 mg/l, 3 °C, 12 days): 3
Number of tiller (1 mg/l, 3 °C, 12 days): 2
Weight of root (1 mg/l, 3 °C, 12 days): 2.9 g
Area of leaf (1 mg/l, 4 °C, 3 days): 10.9 cm^2
Height (1 mg/l, 4 °C, 3 days): 7.1 cm
Weight of root (1 mg/l, 4 °C, 3 days): 2.5 g
Area of leaf (1 mg/l, 4 °C, 6 days): 12.6 cm^2
Height (1 mg/l, 4 °C, 6 days): 7.5 cm
Weight of root (1 mg/l, 4 °C, 6 days): 2.7 g
Area of leaf (1 mg/l, 4 °C, 9 days): 13.7 cm^2
Height (1 mg/l, 4 °C, 9 days): 7.6 cm
Weight of root (1 mg/l, 4 °C, 9 days): 3.0 g
Area of leaf (1 mg/l, 4 °C, 12 days): 14 cm^2
Height (1 mg/l, 4 °C, 12 days): 7.7 cm
Number of leaf (1 mg/l, 4 °C, 12 days): 3
Number of tiller (1 mg/l, 4 °C, 12 days): 2
Weight of root (1 mg/l, 4 °C, 12 days): 3.2 g
Area of leaf (1 mg/l, 5 °C, 3 days): 11.1 cm^2
Height (1 mg/l, 5 °C, 3 days): 7.7 cm
Weight of root (1 mg/l, 5 °C, 3 days): 2.9 g
Area of leaf (1 mg/l, 5 °C, 6 days): 13.6 cm^2
Height (1 mg/l, 5 °C, 6 days): 8.0 cm
Weight of root (1 mg/l, 5 °C, 6 days): 3.5 g
Area of leaf (1 mg/l, 5 °C, 9 days): 18.4 cm^2
Height (1 mg/l, 5 °C, 9 days): 8.6 cm
Weight of root (1 mg/l, 5 °C, 9 days): 3.7 g
Area of leaf (1 mg/l, 5 °C, 12 days): 20 cm^2
Height (1 mg/l, 5 °C, 12 days): 8.9 cm
Number of leaf (1 mg/l, 5 °C, 12 days): 3
Number of tiller (1 mg/l, 5 °C, 12 days): 2
Weight of root (1 mg/l, 5 °C, 12 days): 4.5 g
Effects on resistance to low temperature compared among analogues (in vivo): more than those of BR2, BR3 and BR4
